Laboratory results as given in patent publication US8461362B2, “Protein phosphatase 2A-activating agents” (The Ohio State University Research Foundation, priority 2009, dated 2013).
Residues, ends and D or L forms follow the SMILES beside them. *: point of attachment. Cbz = O=C(OCc1ccccc1)*

Experiments:
[1] = tested on: AR and its target gene product PSA in LNCaP cells; assay: Western blot of AR and PSA expression in LNCaP cells; format: cell-based; conditions: PP2A inhibitor co-treatment with VES or TS-1
Experimental: (§1) Cells cultured in T25 flasks were collected by scraping, and cell pellets were washed once with PBS. Cells were lysed in a lysis buffer consisting of 1% SDS, 10 mM EDTA and 50 mM Tris-HCl, pH 8.1, in the presence of a commercial protease inhibitor cocktail from Aldrich-Sigma (2 mM AEBSF, 1 mM EDTA, 130 μM bestatin, 14 μM E-64, 1 μM leupeptin, and 0.3 μM aprotinin). Following a 10-sec sonication using 20% output in a Virsonic 300 sonicator (Virtis, Gardiner N.Y.) to disrupt cellular organelles and genomic DNA, cell lysates were centrifuged at 15,200×g for 15 minutes. One μL of the suspension was used for protein determination using a colorimetric BCA assay (Pierce, Rockford, Ill.), and to the remaining solution was added an equivalent volume of 2×SDS-polyacrylamide gel electrophoresis sample loading buffer (62.5 mM Tris-HCl, pH 6.8, 4% SDS, 5% β-mercaptoethanol, 20% glycerol, and 0.1% bromophenol blue), and boiled for 5 min. Equal amounts of proteins were resolved in 8% SDS-polyacrylamide gels, and transferred to nitrocellulose membranes using a semidry transfer cell. The transblotted membrane was washed twice with Tris-buffered saline containing 0.1% Tween 20 (TBST). After blocking with TBST containing 5% nonfat milk for 40 min, the membrane was incubated with the appropriate primary antibody in TBST-1% nonfat milk at 4° C. overnight. All primary antibodies were diluted 1:1000 in 1% nonfat milk-containing TBST. After treatment with the primary antibody, the membrane was washed three times with TBST for a total of 15 min, followed by incubation with goat anti-rabbit or anti-mouse Immunoglobulin G (IgG)-horseradish peroxidase conjugates (diluted 1:2000) for 1 h at room temperature and four washes with TBST for a total of 1 h. The immunoblots were visualized by enhanced chemiluminescence.

[2] = tested on: androgen-independent prostate cancer; conditions: minimally pretreated patients with androgen-independent prostate cancer; cited from earlier work
Sp1 = Sp1 protein expression, stability and ubiquitination in LNCaP cells; format: cell-based; conditions: proteasome inhibition, LNCaP cells treated with TS-1
Experimental: as §1
LNCaP cells were co-transfected with 5 μg each of Flag-Sp1 and HA-ubiquitin plasmids in an Amaxa Nucleofector using a LNCaP-specific nucleofector kit. These transiently transfected cells were seeded in 6-well plates at 2×10^5 per well. After 48-h incubation, cells were exposed to VES or TS-1 at the indicated concentration for 48 h, and lysed by a radioimmunoprecipitation assay lysis buffer (Santa Cruz Biotechnology) in the presence of a freshly prepared cocktail of phosphatase and protease inhibitors (2 mmol/L AEBSF, 1 mM EDTA, 130 μM bestatin, 14 μM E-64, 1 μM leupeptin, and 0.3 μM aprotinin, 2 mM imidazole, 1 mM sodium fluoride, 1.15 mM sodium molybdate, 1 mM sodium orthovanadate, and 4 mmol/L sodium tartrate dihydrate). After centrifugation at 13,000×g for 15 min, the supernatants were collected, preincubated with protein A/G agarose (Santa Cruz Biotechnology) for 15 min, and centrifuged at 1,000×g for 5 min. Supernatant (20 μL) were stored at 4° C. to be used as input, whereas the remaining supernatant was exposed to 4 μg of anti-Sp1 antibodies at 4° C. for 12 h, followed by protein A/G agarose beads at 4° C. for another 2 h. After brief centrifugation, immunoprecipitates were collected, washed with the aforementioned lysis buffer four times, suspended in 2×SDS sample buffer, and subjected to Western blot analysis with antibodies against HA and Flag.

For C=C1[C@@H](O)[C@@H]2O[C@]3(CC[C@H](/C=C/[C@@H](C)[C@@H]4CC(C)=C[C@@]5(O[C@H](C[C@@](C)(O)C(=O)O)CC[C@H]5O)O4)O3)CC[C@H]2O[C@@H]1[C@@H](O)C[C@H](C)[C@H]1O[C@@]2(CCCCO2)CC[C@H]1C [okadaic acid], the “protection from VES/TS-1 suppression of phosphorylation or expression of JNK, Sp1 and AR” value [1] was “could protect cells from the suppressive effect”.
For Cn1cncc1[C@@](N)(c1ccc(Cl)cc1)c1ccc2c(c1)c(-c1cccc(Cl)c1)cc(=O)n2C [R115777], the “anti-tumor activity in patients” value [2] is given as “little anti-tumor activity”.
In the case of CC[C@H](C)[C@H](NC(=O)[C@H]([C@@H](C)CC)N(C)C(C)=O)C(=O)N[C@H](C(=O)N[C@@H](CC(C)C)C(=O)[C@@]1(C)CO1)[C@@H](C)O [epoxomicin], the “protection of Sp1 from TS-1-facilitated ablation” value (Sp1) is reported as “protected Sp1 from TS-1-facilitated ablation”.
In the case of CC(C)C[C@@H](C=O)NC(=O)[C@H](CC(C)C)NC(=O)[C@H](CC(C)C)NC(=O)OCc1ccccc1 [MG-132] (Cbz-Leu-Leu-Leu-aldehyde), the “protection of Sp1 from TS-1-facilitated ablation” value (Sp1) is reported as “protected Sp1 from TS-1-facilitated ablation”.
